The subject of test [1] is varicose veins. Put plainly: Topical treatment of varicose veins. It is filed as in vivo, human. The following applies: 0.5% (w/v) in WEP442 topically twice daily, right lower leg, end of four weeks. An excerpt:
A subject had multiple varicose veins in their right lower leg for many years resistant to any kind of topical treatments including high potency alpha-hydroxyacids. The lesions of varicose veins covered an area of skin measuring 5 cm×10 cm and appeared more prominent with advancing age. The subject topically applied twice daily 0.5% (w/v) N—Ac-L-Tyr-L-Tyr-NH2 in WEP442 solution as prepared in Example 5. […] It is believed that continued topical application will eradicate the varicose veins.

For test [2], the system named is muscle strength. Put plainly: Pushup performance after topical application to upper chest. It is filed as in vivo, human. The settings on record: 0.5% (w/v) in WEP442 pH 6.9 on upper chest about 30 minutes before exercise; routinely about 100. As for the experimental part: A subject, performed pushups routinely with a maximal number of about 100 in one hour. The subject topically applied 0.5% (w/v) N—Ac-L-Tyr-L-Tyr-NH2 in WEP442, pH 6.9 solution as prepared in Example 5 to ease the tight muscles on the upper chest about 30 minutes before the exercise. The subject was surprised to find that after the topical application they could now perform pushups with a maximal number of about 200 in one hour without feeling tired. The subject repeated the performance next day with the same enhanced result. To make sure that the enhanced effect on the muscles was not due to the vehicle solution, in the following day the subject topically applied WEP442 solution to the same upper chest about 30 minutes before the exercise. This time the subject could not perform the same number of pushups as before.

Test [3] concerns sweating of underarm. The test can be described thus: Topical application to underarm, perspiration. The settings on record: 0.5% (w/v) in WEP442 pH 6.7 after shower. The format is in vivo, human. From the text: A subject, routinely took a shower every morning, then topically applied a conventional antiperspirant product on the underarm skin to prevent perspiration. To test the efficacy of the N-acyldipeptide derivative of the present invention, the subject after the shower, topically applied 0.5% (w/v) N—Ac-L-Tyr-L-Tyr-NH2 in WEP442, pH 6.7 (Example 5) on the left underarm and a control vehicle WEP442 on the right underarm. After two hours, there was profuse sweating in the right underarm as evidenced by the wet shirt in the armpit area. In contrast, there was no sweating in the left underarm as shown by the dry shirt in the armpit area. The left underarm was dry for the next 6-8 hours.

The subject of test [4] is interleukin-6 (IL-6) in THP-1 leukemia cells. The test can be described thus: In vitro screen for anti-inflammatory effects: angiocidin-induced IL-6 in THP-1 cells (ELISA). The format is cell-based, human. The settings on record: 100 μg/ml for 24 hours, then angiocidin 10 μg/ml for 24 hours. On the procedure:
A typical in vitro screen for anti-inflammatory effects was carried out as follows.
THP-1 leukemia cells (monocytic leukemic human cell line) were cultured and either untreated or treated with a bioactive dipeptide derivative (100 μg/ml) of the present invention for 24 hours. The untreated or treated leukemia cells were then treated with angiocidin (10 μg/ml) for 24 hours to induce interleukin-6 (IL-6) which was an indicator of the inflammation. The induced IL-6 was measured quantitatively by ELISA (enzyme-linked immunosorbent assay). […] Therefore, the bioactive dipeptide derivatives of the present invention, such as N—Ac-L-Val-L-Ala-NH2, have the potential use as nonsteroidal anti-inflammatory substances.
(In general: An ELISA detects its analyte on a solid surface through an enzyme-linked reagent.)

Test [5] relates to osteoarthritis of both knees. The test can be described thus: Intra-articular injections in knee osteoarthritis. It is filed as in vivo, human. On the procedure: Bioactive dipeptide derivative of the present invention as potential treatment of knee osteoarthritis by intra-articular injections.
A subject had severe osteoarthritis of both knees for four and half years. Prior therapy had included intra-articular injections of corticosteroids and hyaluronic acid as well as celecoxib (Celebrex) orally (200 mg) twice daily. Such therapy had provided only mild transitory relief of knee pain and edema, and edema of lower legs.
Intra-articular injections of 0.2% (w/v) N—Ac-L-Val-L-Ala-NH2 in water, 1 ml (2 mg) as prepared in Example 22 were administered to each knee. The pains in both knees disappeared 10-15 minutes after the injections, and the relief of pains lasted for 24 hours. Edema and inflammation of the knees and lower legs had diminished for approximately the same 24 hour period. Repeat injections of the same composition were administered once a week for five weeks to provide continued relief of pain, edema and inflammation.
In another trial, intra-articular injections of 0.2% (w/v) N—Ac-L-Val-L-Ala-NH2 with 1% (w/v) methyl cellulose in water, 0.4 ml (0.8 mg) as prepared in Example 22 were also administered to each knee at different times. The pains in both knees disappeared 10-15 minutes after the injections, and the relief of pains lasted for 24 hours. Edema and inflammation of the knees and lower legs had diminished for approximately the same 24 hour period.
In yet another embodiment, the volunteer subject injected intra-articularly into a knee joint a test composition containing a bioactive dipeptide derivative of the present invention to improve and reduce arthritic inflammation and pain of the joint.

For test [6], the system named is skin cut with an open wound. The test can be described thus: Topical treatment of skin wound. The settings on record: 0.5% (w/w) cream twice daily on 2 cm open wound. It is filed as in vivo, human. An excerpt:
The subject topically applied twice daily 0.5% (w/w) N—Ac-L-Val-L-Ala-NH2 cream as formulated in Example 2 on the wound. […] At the end of 5 days, the wound had healed nearly completely, and treated skin appeared normal without any signs of scar formation. The wound had 95-100% improvement as judged by clinical evaluation.

The test system of test [7] is MB231 breast cancer cells. Put plainly: In vitro screen for anti-tumor effects: proliferation of MB231 cells (MTS). The settings on record: 20 μg/ml, end of 3 days of incubation, MTS absorbance at 490 nm vs water control. It is filed as cell-based. As for the experimental part: A typical in vitro screen for anti-tumor or anti-cancer effects was carried out as follows.
An aliquot of 2,000 MB231 breast cancer cells (breast carcinoma cells) in 100 μl DMEM complete media (Sigma Chemical Co.) was plated in a 96 well plate containing at a concentration of 20 μg/ml a test substance or control water. To measure proliferation of the cancer cells, an aliquot of 20 μl of MTS reagent (Promega Co.) was added to each well and the cells were incubated at […] for a total of three days. The cells rapidly metabolized MTS reagent and the metabolized MTS reagent was measured at 490 nm at the end of days 1, 2 and 3. The reading was proportional to the number of cancer cells. The decrease in absorbance at each time point indicated fewer cancer cells. At the end of day 3, the decrease in absorbance with respect to the control indicated the inhibition by the test substance.

Where [8] appears, read: 0.2% (w/v) in water, 1 ml (2 mg) intra-articular per knee.
[9] abbreviates: 0.2% (w/v) with 1% (w/v) methyl cellulose in water, 0.4 ml (0.8 mg) intra-articular per knee.

Peptide text beside a SMILES is read from it.

In the case of `CC(=O)N[C@@H](Cc1ccc(O)cc1)C(=O)N[C@@H](Cc1ccc(O)cc1)C(N)=O` [N-Ac-L-Tyr-L-Tyr-NH2] (Ac-Tyr-Tyr-NH2), the “appearance of varicose vein lesions” value in test [1] is “appeared less prominent”. In addition, in test [2], the “maximal number of pushups in one hour” value is “about 200”. The “time the treated underarm stayed dry” value in test [3] is 6 to 8 h. In test [3] (after two hours, vehicle underarm profuse sweating), the “sweating of treated left underarm” value is recorded as “no sweating”.
With `CC(=O)N[C@H](C(=O)N[C@@H](C)C(N)=O)C(C)C` [N-Ac-L-Val-L-Ala-NH2] (Ac-Val-Ala-NH2), in test [4], the “inhibition of the production of IL-6” value is reported as “approximately 70%”. In test [5] (setting [8]), the “duration of relief of pains” value amounted to 24 h; the “period of diminished edema and inflammation of knees and lower legs” value was approximately 24 h; the “time after injection until pains in both knees disappeared” value was in the range of 10 to 15 min. In addition, in test [5] (setting [9]), the “duration of relief of pains” value amounted to 24 h; the “period of diminished edema and inflammation of knees and lower legs” value is approximately 24 h; the “time after injection until pains in both knees disappeared” value lay in the range of 10 to 15 min. In test [6] (end of 5 days), the “improvement of wound as judged by clinical evaluation” value is on record as 95-100%. The “wound pain after topical application” value in test [6] (left leg) is listed as “stopped within a few minutes”. The “inhibition of the growth of breast cancer cells” value in test [7] is “approximately 12%”.

(Values after patent US11224565B2, “N-acyldipeptide derivatives and their uses” (NeoStrata Company, Inc., priority 2011, dated 2022).)
